# Measured values from ChEMBL document CHEMBL1134878, “L-Cysteine based N-type calcium channel blockers: structure-activity relationships of the C-terminal lipophilic moiety, and oral analgesic efficacy in rat pain models” (Bioorg Med Chem Lett, 2002).
# Tests used:
# [1] = Selectivity IC50 ratio of L-type [Ca2+] channel blocking activity (AtT-20 mouse pituitary tumor-derived cells) to that of N-type blocking activity (IMR-32 human neuroblastoma cells)
# [2] = target: T1, Voltage-dependent N-type calcium channel subunit alpha-1B (Homo sapiens, UniProt Q00975); test: In vitro inhibition of N-type calcium channel influx in IMR-32 human neuroblastoma cells; type: cell-based
# Target sequence in this assay (Q00975 whole entry): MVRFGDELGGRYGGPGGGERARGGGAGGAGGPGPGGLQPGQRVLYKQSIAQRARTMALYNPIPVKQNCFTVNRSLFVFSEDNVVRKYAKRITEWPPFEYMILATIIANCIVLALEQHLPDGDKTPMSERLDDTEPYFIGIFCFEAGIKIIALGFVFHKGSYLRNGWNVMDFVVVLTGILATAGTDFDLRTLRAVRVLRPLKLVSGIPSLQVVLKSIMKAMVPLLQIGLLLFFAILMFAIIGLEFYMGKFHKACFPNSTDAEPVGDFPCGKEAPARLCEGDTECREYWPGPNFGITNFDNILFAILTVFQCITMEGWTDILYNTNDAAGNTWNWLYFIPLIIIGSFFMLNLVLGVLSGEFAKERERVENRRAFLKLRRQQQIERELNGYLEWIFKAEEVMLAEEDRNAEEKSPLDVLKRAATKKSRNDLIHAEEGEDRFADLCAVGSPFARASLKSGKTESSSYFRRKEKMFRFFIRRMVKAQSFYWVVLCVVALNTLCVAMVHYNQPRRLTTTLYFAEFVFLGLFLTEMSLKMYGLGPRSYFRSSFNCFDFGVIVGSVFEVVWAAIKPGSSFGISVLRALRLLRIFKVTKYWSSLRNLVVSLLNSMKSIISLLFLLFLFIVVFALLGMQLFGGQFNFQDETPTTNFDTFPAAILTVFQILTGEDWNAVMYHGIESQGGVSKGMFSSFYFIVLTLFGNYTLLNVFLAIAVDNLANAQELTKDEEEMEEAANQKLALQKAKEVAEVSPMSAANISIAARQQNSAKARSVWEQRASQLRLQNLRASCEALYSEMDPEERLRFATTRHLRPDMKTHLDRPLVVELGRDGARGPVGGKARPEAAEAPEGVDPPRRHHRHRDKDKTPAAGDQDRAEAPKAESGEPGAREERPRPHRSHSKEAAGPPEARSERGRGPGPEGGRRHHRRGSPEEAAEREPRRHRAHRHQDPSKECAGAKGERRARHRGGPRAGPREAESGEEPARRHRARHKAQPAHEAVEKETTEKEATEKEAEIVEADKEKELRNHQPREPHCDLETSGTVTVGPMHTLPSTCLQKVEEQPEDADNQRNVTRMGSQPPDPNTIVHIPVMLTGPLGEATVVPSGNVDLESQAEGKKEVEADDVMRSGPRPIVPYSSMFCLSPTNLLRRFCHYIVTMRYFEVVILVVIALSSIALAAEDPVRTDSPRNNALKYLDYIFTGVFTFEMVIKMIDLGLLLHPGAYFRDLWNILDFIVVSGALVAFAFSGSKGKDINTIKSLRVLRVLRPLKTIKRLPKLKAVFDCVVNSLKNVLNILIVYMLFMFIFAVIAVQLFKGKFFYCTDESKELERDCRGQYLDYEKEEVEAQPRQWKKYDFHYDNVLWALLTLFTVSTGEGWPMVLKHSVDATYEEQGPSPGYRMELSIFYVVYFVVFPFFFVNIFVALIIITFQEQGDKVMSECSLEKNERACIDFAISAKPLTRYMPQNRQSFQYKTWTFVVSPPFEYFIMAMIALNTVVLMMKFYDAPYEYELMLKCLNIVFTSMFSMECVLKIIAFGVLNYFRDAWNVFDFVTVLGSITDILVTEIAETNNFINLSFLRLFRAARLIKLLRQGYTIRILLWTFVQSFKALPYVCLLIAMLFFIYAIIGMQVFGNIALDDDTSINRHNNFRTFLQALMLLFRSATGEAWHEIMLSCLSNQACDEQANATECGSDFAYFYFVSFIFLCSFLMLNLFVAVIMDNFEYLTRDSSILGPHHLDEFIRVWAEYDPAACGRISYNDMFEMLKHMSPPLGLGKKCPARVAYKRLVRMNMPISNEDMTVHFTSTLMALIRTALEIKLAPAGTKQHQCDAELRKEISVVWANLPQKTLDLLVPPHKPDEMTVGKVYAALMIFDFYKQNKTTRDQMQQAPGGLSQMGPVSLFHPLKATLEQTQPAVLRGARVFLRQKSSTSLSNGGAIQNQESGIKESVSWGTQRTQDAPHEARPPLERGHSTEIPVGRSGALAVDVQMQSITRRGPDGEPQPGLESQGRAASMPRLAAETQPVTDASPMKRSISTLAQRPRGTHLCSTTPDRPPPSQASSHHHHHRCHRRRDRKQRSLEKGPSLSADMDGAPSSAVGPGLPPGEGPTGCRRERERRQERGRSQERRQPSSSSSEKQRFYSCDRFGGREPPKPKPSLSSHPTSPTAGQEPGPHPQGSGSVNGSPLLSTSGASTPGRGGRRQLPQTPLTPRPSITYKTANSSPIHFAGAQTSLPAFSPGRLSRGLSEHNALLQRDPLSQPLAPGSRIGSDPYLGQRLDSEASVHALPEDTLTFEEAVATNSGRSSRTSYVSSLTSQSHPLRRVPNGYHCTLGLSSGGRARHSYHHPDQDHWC
# [3] = (§1) In vitro inhibition of calcium influx (L-type blocking activity) in AtT-20 mouse pituitary tumor-derived cells; type: functional; details: AtT20
# [4] = Partition coefficient (logP); type: physicochemical; details: octanol/water
# [5] = Selectivity IC50 ratio of L-type blocking activity (AtT-20 mouse pituitary tumor-derived cells) to that of N-type blocking activity (IMR-32 human neuroblastoma cells)
# [6] = system: Rattus norvegicus; test: Minimum effective oral dose required for the inhibition of paw flinching in rat formalin induced pain model; type: functional; details: read-out: MED
# [7] = as §1; details: AtT20
# [8] = target: T1, Voltage-dependent N-type calcium channel subunit alpha-1B; test: Percentage inhibition of N-type calcium channel influx in IMR-32 human neuroblastoma cells at 3 uM; type: cell-based
# Target sequence in this assay (Q00975 whole entry, looked up): as the sequence (Q00975 whole entry) above
# [9] = system: Rattus norvegicus; test: Minimum effective oral dose required for the antinociceptive effects on thermal hyperalgesia induced by CCI (chronic constriction injury) of the sciatic nerve in rat; type: functional; details: read-out: MED
SMILES,Ratio [1],IC50 [2] [nM],IC50 [3] [nM],logP [4],Ratio [5],minimal effective dose [6] [mg/kg],IC50 [7] [nM],inhibition [8] [%],minimal effective dose [9] [mg/kg]
CC(C)(C)OC(=O)N1CSC[C@H]1C(=O)N[C@@H](CSCC1CCCCC1)C(=O)N1CCC(Nc2ccccc2)CC1,0.82,660,540,,,,,,
CC(C)(C)OC(=O)N1CSC[C@H]1C(=O)N[C@@H](CSCC1CCCCC1)C(=O)NCc1ccc(Oc2ccccc2)cc1,,,,5,12,> 100,1700,,
CC(C)(C)OC(=O)N1CSC[C@H]1C(=O)N[C@@H](CSCC1CCCCC1)C(=O)NCCNCc1ccccc1,,380,,2.8,6.3,,2400,,
CC(C)(C)OC(=O)N1CSC[C@H]1C(=O)N[C@@H](CSCC1CCCCC1)C(=O)NC1CCN(c2ccccc2)CC1,,150,,,3.6,,540,,
CC(C)(C)OC(=O)N1CSC[C@H]1C(=O)N[C@@H](CSCC1CCCCC1)C(=O)N1CCC(NCc2ccccc2)CC1,5.2,500,2600,,,,,,
CC(C)(C)OC(=O)N1CSC[C@H]1C(=O)N[C@@H](CSCC1CCCCC1)C(=O)N1CCN(c2ccccc2)CC1,,390,,,1.5,,580,,
CC(C)(C)OC(=O)N1CSC[C@H]1C(=O)N[C@@H](CSCC1CCCCC1)C(=O)N1CCN(Cc2ccccc2)CC1,,370,,,2.7,,1000,,
CC(C)(C)OC(=O)N1CSC[C@H]1C(=O)N[C@@H](CSCC1CCCCC1)C(=O)NC1CCN(Cc2ccccc2)CC1,15,330,5000,3.5,,10,,75,30
